Experimental findings from patent US20230348424A1, “HETEROCYCLIC COMPOUNDS AND METHODS OF USE” (Schrödinger, Inc., priority 2022, published 2023) are described below.

The target in assay [1] is SOS1:KRAS (G12C) interaction (Homo sapiens (Human), UniProt Q07889). Briefly: SOS1 KRas(G12C) FRET Assay. Type of assay: binding. The note with it: 0.5 nM His10-SOS1 (res. 564-1049), 2.5 nM GST-KRAS G12C (res. 1-169), 2 hrs at RT. A digest of the protocol: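 GST-KRAS G12C (res. 1-169) at 2.5 nM and His10-SOS1 (res. 564-1049) at 0.5 nM, final, in PBS with 0.1% BSA, 5 mM MgCl2, 100 mM KF, 5 mM DTT and 0.5% DMSO. After 2 h at RT, FRET read at 665/615 nm and normalized to DMSO and no-SOS1 controls. IC50 by non-linear regression.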

For the next assay, the target named is human SOS1 (Homo sapiens (Human), UniProt Q07889). Put plainly: Surface Plasmon Resonance (SPR) SOS1 Binding Assay. The note with it: biotinylated SOS1 (res. 564-1049), Biacore 8K, 25° C., kinetic or steady state fit, 1:1 binding; read-out: hSOS1 KD. The method, then:
Binding to SOS1 was measured using a SPR assay with purified recombinant human SOS1 substrate (res. 564-1049 with N-terminal Avi tag; purified and biotinylated based on Hillig, et al., Proc Natl Acad Sci USA (2019); 116(7):2551-2560). SPR measurements were performed on a Biacore 8K SPR instrument (GE Healthcare, Sweden). Assays were performed at 25° C. using Series S SA sensor chips pre-coated with streptavidin (GE Healthcare, Cat. BR100531). Biotinylated SOS1 diluted in sample buffer (20 mM Tris HCI, 150 mM NaCl, 1 mM DTT, 0.05% TWEEN 20, 1 mM MgCh, pH 8.0) was captured to one flow cell of the chip to about 3,000 resonance units (RU) using sample buffer supplemented with 5% DMSO as a running buffer. Serial dilutions of the assayed compounds in the running buffer at 100, 50 or 0.5 µM were injected for 60 s at a flow rate of 30 µL/min and association phases were recorded. Dissociation of the samples was monitored for 600 s. Data processing was performed using Biacore Insight Software (Biacore, GE Healthcare). Sensorgrams recorded on a SA flow cell without captured protein were subtracted from sensorgrams recorded on the SOS1 surface. Blank injections of running buffer were used for double referencing and solvent correction was applied to all sample sensorgrams to correct for buffer mismatches. KDS were estimated using a kinetic or steady state, where applicable, fitting model describing a reversible equilibrium with 1:1 binding between SOS1 and the compound.
(In general: Surface plasmon resonance follows binding to a sensor surface in real time, without labels.)

human SOS1, sequence (Q07889 564-1049): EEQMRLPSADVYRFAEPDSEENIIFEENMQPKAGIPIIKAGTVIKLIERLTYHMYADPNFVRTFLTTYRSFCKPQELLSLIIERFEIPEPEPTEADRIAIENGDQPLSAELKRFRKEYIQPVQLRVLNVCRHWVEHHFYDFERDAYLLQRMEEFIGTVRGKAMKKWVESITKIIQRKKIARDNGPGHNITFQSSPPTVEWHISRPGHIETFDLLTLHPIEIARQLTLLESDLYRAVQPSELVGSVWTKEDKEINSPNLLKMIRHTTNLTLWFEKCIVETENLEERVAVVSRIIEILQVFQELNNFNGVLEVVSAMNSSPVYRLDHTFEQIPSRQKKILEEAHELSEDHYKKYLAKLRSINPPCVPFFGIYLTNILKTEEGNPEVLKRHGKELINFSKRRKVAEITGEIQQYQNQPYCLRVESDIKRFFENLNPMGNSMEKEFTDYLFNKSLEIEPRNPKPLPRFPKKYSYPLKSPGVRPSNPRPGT
SOS1:KRAS (G12C) interaction, sequence (Q07889 564-1049, stated change not applied): as the sequence (Q07889 564-1049) above

Usually IC50 stands for the concentration that gives 50% inhibition. One may read the Kd as the equilibrium constant for the complex coming apart. The molecule `CO[C@@H]1CN(C)CC[C@H]1Nc1cc(=O)n(C2CCOCC2)cc1C(=O)N[C@H](C)c1cccc(C(F)(F)F)c1C` (single isomer, unassigned) [Example 24] registered a half-maximal inhibitory concentration (IC50) in assay [1] of 40 nM. In addition, on human SOS1, the Kd amounted to 27 nM. For `CO[C@H]1CN(C)CC[C@@H]1Nc1cc(=O)n(C2CCOCC2)cc1C(=O)N[C@H](C)c1cccc(C(F)(F)F)c1C` (single isomer, unassigned) [Example 25], in that order: 71.3 nM and 45 nM. For `C[C@@H](NC(=O)c1cn([C@@]2(C)CCOC2)c(=O)cc1NC1CCN(C)CC1)c1cccc(C(F)F)c1F` (single isomer, unassigned) [Example 47], in that order: 4.5 nM and 2 nM.

In assay [1], `C[C@@H](NC(=O)c1cn([C@]2(C)CCOC2)c(=O)cc1NC1CCN(C)CC1)c1cccc(C(F)F)c1F` (single isomer, unassigned) [Example 48] returned a half-maximal inhibitory concentration (IC50) of 25.6 nM. Besides, the Kd on human SOS1 came out at 7 nM. `C[C@@H](NC(=O)c1cn(C2(C(F)F)CC2)c(=O)cc1N[C@@H]1CCN(C)C[C@@H]1F)c1cccc(C(F)F)c1F` (single isomer, unassigned) [Example 63] yielded an IC50 in assay [1] of 11.3 nM. The dissociation constant (Kd) at human SOS1 amounted to 7 nM. `C[C@@H](NC(=O)c1cn(C2(C(F)F)CC2)c(=O)cc1N[C@H]1CCN(C)C[C@H]1F)c1cccc(C(F)F)c1F` (single isomer, unassigned) [Example 64] had a half-inhibitory concentration (IC50) in assay [1] of 15 nM. For the same molecule, at human SOS1, the equilibrium dissociation constant (Kd) came out at 9 nM.

With `C[C@@H](NC(=O)c1cn(C2(C(F)F)CC2)c(=O)cc1N[C@@H]1CCN(C)C[C@H]1F)c1cccc(C(F)F)c1F` (single isomer, unassigned) [Example 65], in assay [1], inhibition was half-maximal at 50.4 nM (IC50). Besides, the dissociation constant Kd at human SOS1 was 48 nM.

In assay [1], `C[C@@H](NC(=O)c1cn(C2(C(F)F)CC2)c(=O)cc1N[C@H]1CCN(C)C[C@@H]1F)c1cccc(C(F)F)c1F` (single isomer, unassigned) [Example 66] had an IC50 of 48.6 nM. Further, the dissociation constant Kd at human SOS1 was 34 nM. For `C[C@@H](NC(=O)c1cn(C2(C(F)F)CC2)c(=O)cc1N[C@@H]1CCNC[C@@H]1F)c1cccc(C(F)F)c1F` (single isomer, unassigned) [Example 69], in that order: 17.4 nM and 13 nM. In the case of `C[C@@H](NC(=O)c1cn(C2(C(F)F)CC2)c(=O)cc1N[C@H]1CCNC[C@H]1F)c1cccc(C(F)F)c1F` (single isomer, unassigned) [Example 70], the concentration for half-maximal inhibition (IC50) in assay [1] was 12.7 nM. Also, the Kd at human SOS1 was determined as 4 nM. Consider `C[C@@H](NC(=O)c1cn([C@H]2C[C@@H]2C2CC2)c(=O)cc1N[C@H]1[C@@H]2CN(C)C[C@@H]21)c1cccc(C(F)F)c1F` (single isomer, unassigned) [Example 72], for which, in assay [1], the IC50 was 9.7 nM. For the same molecule, the Kd at human SOS1 was found to be 3 nM.

For `C[C@@H](NC(=O)c1cn([C@@H]2C[C@H]2C2CC2)c(=O)cc1NC1CCN(C)CC1)c1cccc(C(F)F)c1F` (single isomer, unassigned) [Example 74], inhibition in assay [1] was half-maximal at 4.6 nM (IC50). The Kd at human SOS1 was 2 nM. Molecule `C[C@@H](NC(=O)c1cn([C@@H]2CC2(F)F)c(=O)cc1N[C@H]1[C@@H]2CN(C)C[C@@H]21)c1cccc(C(F)F)c1F` (single isomer, unassigned) [Example 92] came in with a 50% inhibitory concentration (IC50) in assay [1] of 16.1 nM. In addition, the equilibrium dissociation constant (Kd) on human SOS1 came out at 9 nM. `C[C@@H](NC(=O)c1cn([C@@H]2CC2(C)C)c(=O)cc1N[C@H]1[C@@H]2CN(C)C[C@@H]21)c1cccc(C(F)F)c1F` (single isomer, unassigned) [Example 94] registered a half-inhibitory concentration (IC50) in assay [1] of 13.4 nM. Also, the dissociation constant (Kd) on human SOS1 was found to be 7 nM.

As to `C[C@@H](NC(=O)c1cn([C@@H]2CCC2(F)F)c(=O)cc1N[C@H]1[C@@H]2CN(C)C[C@@H]21)c1cccc(C(F)F)c1F` (single isomer, unassigned) [Example 103], in assay [1], the IC50 was 5.7 nM. In addition, the Kd on human SOS1 came to 3 nM.

For `C[C@@H](NC(=O)c1cn([C@H]2CCC2(F)F)c(=O)cc1N[C@H]1[C@@H]2CN(C)C[C@@H]21)c1cccc(C(F)F)c1F` (single isomer, unassigned) [Example 104], the IC50 in assay [1] was 45.4 nM. Also, on human SOS1, the Kd turned out to be 24 nM. In the case of `C[C@@H]1[C@@H](n2cc(C(=O)N[C@H](C)c3cccc(C(F)F)c3F)c(N[C@H]3[C@@H]4CN(C)C[C@@H]43)cc2=O)C1(F)F` (single isomer, unassigned) [Example 109], 3.6 nM corresponded to half-maximal inhibition in assay [1] (IC50). On human SOS1, the dissociation constant Kd came to 2 nM. Take `C[C@@H](NC(=O)c1cn([C@H]2[C@H](C)C2(F)F)c(=O)cc1N[C@H]1[C@@H]2CN(C)C[C@@H]21)c1cccc(C(F)F)c1F` (single isomer, unassigned) [Example 110]: inhibition in assay [1] was half-maximal at 23.8 nM (IC50). The dissociation constant (Kd) at human SOS1 came out at 12 nM. The molecule `C[C@@H](NC(=O)c1cn([C@H]2C[C@@H]2C(F)(F)F)c(=O)cc1N[C@H]1[C@@H]2CN(C)C[C@@H]21)c1cccc(C(F)F)c1F` (single isomer, unassigned) [Example 111] yielded an IC50 in assay [1] of 26.2 nM. Also, the dissociation constant Kd on human SOS1 came to 17 nM. For `C[C@@H](NC(=O)c1cn([C@@H]2C[C@H]2C(F)(F)F)c(=O)cc1N[C@H]1[C@@H]2CN(C)C[C@@H]21)c1cccc(C(F)F)c1F` (single isomer, unassigned) [Example 112], in assay [1], the IC50 worked out at 13.6 nM. Moreover, the Kd on human SOS1 amounted to 6 nM. In the case of `COCCN1CC(CNc2cc(=O)n(C3CCOCC3)cc2C(=O)N[C@H](C)c2cccc(C(F)(F)F)c2C)C1` [Example 295, (R)-4-(((1-(2-methoxyethyl)azetidin-3-yl)methyl)amino)-N-(1-(2-methyl-3-(trifluoromethyl)phenyl)ethyl)-6-oxo-1-(tetrahydro-2H-pyran-4-yl)-1,6-dihydropyridine-3-carboxamide], in assay [1], inhibition was half-maximal at 53.6 nM (IC50). For `Cc1c([C@@H](C)NC(=O)c2cn(C3CCOCC3)c(=O)cc2NC2CCCn3cncc32)cccc1C(F)(F)F` (stereo partly drawn) [Example 300, N-((R)-1-(2-methyl-3-(trifluoromethyl)phenyl)ethyl)-6-oxo-1-(tetrahydro-2H-pyran-4-yl)-4-((5,6,7,8-tetrahydroimidazo[1,5-a]pyridin-8-yl)amino)-1,6-dihydropyridine-3-carboxamide], inhibition in assay [1] was half-maximal at 20.8 nM (IC50). For `Cc1c([C@@H](C)NC(=O)c2cn(C3CCOCC3)c(=O)cc2NC[C@H]2CC[C@H](N(C)C)CC2)cccc1C(F)(F)F` [Example 301, 4-((((1r,4R)-4-(dimethylamino)cyclohexyl)methyl)amino)-N-((R)-1-(2-methyl-3-(trifluoromethyl)phenyl)ethyl)-6-oxo-1-(tetrahydro-2H-pyran-4-yl)-1,6-dihydropyridine-3-carboxamide], the concentration for half-maximal inhibition (IC50) in assay [1] is 45.3 nM. Turning to `Cc1c([C@@H](C)NC(=O)c2cn(C3CCOCC3)c(=O)cc2NC[C@H]2CC[C@@H](N(C)C)CC2)cccc1C(F)(F)F` [Example 302, 4-((((1s,4S)-4-(dimethylamino)cyclohexyl)methyl)amino)-N-((R)-1-(2-methyl-3-(trifluoromethyl)phenyl)ethyl)-6-oxo-1-(tetrahydro-2H-pyran-4-yl)-1,6-dihydropyridine-3-carboxamide], in assay [1], the half-maximal inhibitory concentration (IC50) is 31.5 nM. The same measure, in the same setting: under `C[C@@H](NC(=O)c1cn([C@@H]2CCOC(C)(C)C2)c(=O)cc1N[C@H]1[C@@H]2CN(C)C[C@@H]21)c1cccc(C(F)F)c1F` [Example 309, N-((R)-1-(3-(difluoromethyl)-2-fluorophenyl)ethyl)-1-((R)-2,2-dimethyltetrahydro-2H-pyran-4-yl)-4-(((1R,5S,6s)-3-methyl-3-azabicyclo[3.1.0]hexan-6-yl)amino)-6-oxo-1,6-dihydropyridine-3-carboxamide] stands 11.7 nM. `C[C@@H](NC(=O)c1cn([C@H]2CCOC(C)(C)C2)c(=O)cc1N[C@H]1[C@@H]2CN(C)C[C@@H]21)c1cccc(C(F)F)c1F` [Example 310, N-((R)-1-(3-(difluoromethyl)-2-fluorophenyl)ethyl)-1-((S)-2,2-dimethyltetrahydro-2H-pyran-4-yl)-4-(((1R,5S,6s)-3-methyl-3-azabicyclo[3.1.0]hexan-6-yl)amino)-6-oxo-1,6-dihydropyridine-3-carboxamide] showed an IC50 in assay [1] of 37.2 nM. In assay [1], `CCC12CC(n3cc(C(=O)N[C@H](C)c4cccc(C(F)F)c4F)c(NC4[C@H]5CN(C)C[C@@H]45)cc3=O)(C1)C2` (stereo partly drawn) [Example 313, N-((R)-1-(3-(difluoromethyl)-2-fluorophenyl)ethyl)-1-(3-ethylbicyclo[1.1.1]pentan-1-yl)-4-(((1R,5S,6s)-3-methyl-3-azabicyclo[3.1.0]hexan-6-yl)amino)-6-oxo-1,6-dihydropyridine-3-carboxamide] gave a 50% inhibitory concentration (IC50) of 10.5 nM.
